Laboratory results as given in patent publication US20070105937A1, “Indole-3-propionamide and derivatives thereof” (priority 2003, published 2007).
pIC50: −log10 of the molar value.

Legend:
rotifers (Philodina) [1] = assay: Synergistic effects on longevity of rotifers with ascorbate and trolox; format: in vivo; design: Maximum Life Span: unit not given here
Procedure: Ascorbate and trolox were administered at a concentration of 100 micromolar, the indoles were given at a concentration of 5 micromolar.

Aβ1-40 = molecular target: T1, Aβ1-40 (Homo sapiens, UniProt P05067); assay: Thioflavin T fluorescence, inhibition of Aβ aggregation; format: biochemical; conditions: Aβ 250 μM, compound:Aβ molar ratio 1:1; FIG. 1
T1 construct: thioflavin T fluorescence experiments performed with Aβ1-40
T1 sequence (P05067 672-711): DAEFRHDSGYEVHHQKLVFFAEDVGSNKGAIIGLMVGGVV
Procedure: FIG. 1 illustrates the results of thioflavin T fluorescence experiments performed with Aβ1-40 showing the effects of IPAM as compared with melatonin and IPA.
The ThT was performed as previously described. Briefly, 5 μl were obtained from each sample after incubation and added to 2 ml of a glycine-NaOH buffer (50 mM), pH 9.2, containing 2 μM thioflavin T. Fluorescence intensities were measured at excitation 435 nm and emission 485 nm in a Hitachi F-2000 fluorescence spectrophotometer. A time scan of fluorescence intensity was performed and three measurements were obtained after the decay reached a plateau at 200, 220, and 240 seconds. These measurements were averaged after subtracting the background fluorescence of 2.0 μM thioflavin T in the blank buffers. […] All measurements were done in triplicate. Aqueous stock solutions of 1 mM of each compound were made by first preparing a 10 mM suspension in 1 N HCl and then by completely dissolving them in 100 mM phosphate buffered saline at pH 7.4 (1:10, v:v) and re-adjusting the pH to 7.4 with 1 N NaOH. Solutions of Aβ were prepared by dissolving 2.2 mg of the peptide in 1 ml of 50 mM bicarbonate buffer at pH 9.6. 50 μl aliquots of this solution were lyophilized and stored at −80° C. until needed. Working stock solutions of the peptide (500 μM concentration) were prepared in HPLC-grade water immediately prior to the experiments. In the experimental samples, Aβ was further diluted 1:1 with phosphate buffered saline (pH 7.4, 100 mM) to which each of the compounds or equivalent volumes of buffer solution were added. The final concentration of Aβ in each sample was 250 μM and the compound:Aβ molar ratios were 1:1.

rotifers (Philodina) [2] = assay: Inhibition of the aging process in a rotifer model (life span); format: in vivo
Excerpt: Free-radicals are involved in the aging process and since IPAM is a powerful cytoprotective agent, we tested IPAM for its property to inhibit the aging process. […] (*=p<0.05, statistically significant difference to control).

[3] = test system: Hydroxyl Radical Mediated Oxidative Damage to DNA; assay: Inhibition of hydroxyl radical mediated oxidative damage to DNA in rat forebrain homogenate (8-hydroxydeoxyguanosine formation); format: biochemical; conditions: 60 min with 3 mM hydrogen peroxide, 4 mM ferrous sulfate, 2 mM ADP; mean+SD, N=6; read-out: IC 50 (concentration to reduce oxidative DNA damage by 50%)
Procedure: Rat forebrain homogenate was incubated for sixty minutes with 3 mM hydrogen peroxide, 4 mM ferrous sulfate and 2 mM ADP to generate hydroxyl radicals. The concentrations of each indole compound to reduce oxidative DNA damage by 50%, the IC 50 values, are given as means+standard deviations for N=6 different determinations. The IC 50 values were calculated by running six experiments each at 10 increasing concentrations ranging from 0.01 to 100 micromolar of melatonin, indole-3-propionic acid and indole-3-propionamide. DNA damage was examined by measuring the formation of 8-hydroxydeoxyguanosine with HPLC and electrochemical detection in the presence and absence of the hydroxyl radical scavengers.

[4] = Time dependent indole levels in brain tissue after i.p. administration; format: in vivo, Sprague-Dawley rats; conditions: mean+SD, N=4
Procedure: Time dependent changes in indole levels in brain tissue (pg/mg protein) after administration of 0.5 mg/kg i.p. of drug in phosphate buffered saline to one month old male Sprague-Dawley rats (N=4 animals, mean+SD). Endogenous levels of melatonin in saline treated control animals were 25+10 pg/mg protein, endogenous levels of indolepropionate were 80+20 pg/mg protein. Significant amounts of endogenous IPAM in rat brain could not be detected. Brain tissue was homogenized 1:10 in phosphate buffer and extracted 1:1 with ethylacetate. Recovery for melatonin, indolepropionate and IPAM were 57+6, 69+12 and 80+4%. Indoles were measured by HPLC with electrochemical detection (20% methanol eluent, 990 mV oxidation potential, IPAM elutes at 18 minutes, melatonin at 21 minutes, indolepropionate at 36 minutes).

[5] = in vivo; cited from earlier work
[6] = series against Control (0.1% DMSO), ascorbate, trolox 100 micromolar
[7] = 30 minutes after 0.5 mg/kg i.p. in phosphate buffered saline
[8] = 60 minutes after 0.5 mg/kg i.p. in phosphate buffered saline
[9] = 120 minutes after 0.5 mg/kg i.p. in phosphate buffered saline

SMILES | Increase in % of control (Medium Life Span) (rotifers (Philodina) [1]; control = 0.1% DMSO) | Maximum Life Span (rotifers (Philodina) [1]; [6]) | inhibition of Aβ aggregation (Aβ1-40) | Increase in % of control (maximum life span) (rotifers (Philodina) [2]; 0.5 μM) | Increase in % of control (median life span) (rotifers (Philodina) [2]; 0.5 μM) | Maximum life span in days (90% survival) (rotifers (Philodina) [2]; 0.5 μM, control 27) [days] | Increase in % of control (maximum life span) (rotifers (Philodina) [2]; 5 μM) | Increase in % of control (median life span) (rotifers (Philodina) [2]; 5 μM) | Maximum life span in days (90% survival) (rotifers (Philodina) [2]; 5 μM, control 30) [days] | Increase in % of control (median life span) (rotifers (Philodina) [2]; 50 μM) | Maximum life span in days (90% survival) (rotifers (Philodina) [2]; 50 μM, control 30) [days] | pIC50 [3] | indole levels in brain tissue [4, 7] | indole levels in brain tissue [4, 8] | indole levels in brain tissue [4, 9] | half-life [5] [h] | Increase in % of control (maximum life span) (rotifers (Philodina) [2]; 50 μM) | other results
O=C1O[C@H]([C@@H](O)CO)C(O)=C1O [Ascorbate] | −1% | 28 | – | – | – | – | – | – | – | – | – | – | – | – | – | – | – | Increase in % of control (maximum life span) (rotifers (Philodina) [1]; control = 0.1% DMSO): −7%; Maximum Life Span (rotifers (Philodina) [1]; series against Ascorbate in 0.1% DMSO, ascorbate 100 micromolar, indoles 5 micromolar): 30
O=C(O)CCc1c[nH]c2ccccc12 [IPA, indole-3-propionic acid] | – | – | potent inhibitor of Aβ aggregation | +37% | +28% | 39 | +37% | +30% | 41 | −3% | 30 | 5.13 | 160 + 11 pg/mg protein | 210 + 18 pg/mg protein | 230 + 25 pg/mg protein | 4.5 | – | –
NC(=O)CCc1c[nH]c2ccccc12 [IPAM, indole-3-propionamide] | – | – | potent inhibitor of Aβ aggregation | +55% | +31% | 42 | +50% | +40% | 45 | +15% | 34 | 6.74 | 480 + 46 pg/mg protein | 520 + 50 pg/mg protein | 570 + 69 pg/mg protein | – | +13% | toxicity in rotifers (rotifers (Philodina) [2]; in vivo): devoid of toxicity
COc1ccc2[nH]cc(CCNC(C)=O)c2c1 [Melatonin] | – | – | potent inhibitor of Aβ aggregation | +30% | +19% | 35 | +40% | +29% | 42 | +12% | 31 | 5.85 | 450 + 30 pg/mg protein | 200 + 15 pg/mg protein | 73 + 6 pg/mg protein | 0.333 | +3% | –
Cc1c(C)c2c(c(C)c1O)CCC(C)(C(=O)O)O2 (stereo not drawn) [Trolox] | +8% | 30 | – | – | – | – | – | – | – | – | – | – | – | – | – | – | – | Maximum Life Span (rotifers (Philodina) [1]; series against Trolox in 0.1% DMSO, trolox 100 micromolar, indoles 5 micromolar): 34
